According to PubChem BioAssay AID623904 (Broad Institute, 2012):
Values joined by “and” are separate entries in the source; they are usually repeats but may differ in a detail not shown here. Identical values can stand only once. Active and inactive are the calls of the source.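 Rule for the calls: active = growth inhibition with an AC50 at or below twice the top valid tested dose; inconclusive = flat curve at 30 to 70% inhibition, or poor fit; inactive = the rest, including growth increase.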

Tested on: Candida glabrata growth, glucose medium, OD600, 48 h
Experiment: antifungal activity against fermenting C. glabrata – glucose medium, OD600, powder samples, set 2, dose response (AID 623904)
Conditions: not given

Structure (SMILES)	AC50
Cc1ccc(N2C(=O)N(C)C(=O)C23CCCCC3)cc1	> 12 µM (inactive)
Cc1ccc(N2C(=O)C(=O)NC2=S)cc1	> 12 µM (inactive)
CCOC(=O)N1C(=O)C2(CCC2)N(c2ccc(C)cc2)C1=S	> 12 µM (inactive)
Cc1ccc(N2C(=O)C3(CCCCC3)NC2=S)cc1	> 12 µM (inactive)
CCOC(=O)N1C(=S)N(c2ccc(C)cc2)C2(CCCCC2)C1=NCc1ccccc1	> 12 µM (inactive)
CCOC(=O)N1C(=O)C2(CCCC2)N(c2ccc(C)cc2)C1=S	> 12 µM (inactive)
CCOC(=O)N1C(=O)C2(CCCCC2)N(c2ccc(F)cc2)C1=S	2.34 µM
CC1/C=C/C=C\C=C\C=C\C=C\C=C\C=C\C(O[C@H]2OC(C)C(O)C(N)C2O)CC2OC(O)(CC(O)CC(O)C(O)CCC(O)CC(O)CC(=O)OC(C)C(C)C1O)CC(O)C2C(=O)O (stereo partly drawn)	0.206 µM
CCOC(=O)N1C(=O)C2(CCCCC2)N(c2ccc(C#N)cc2)C1=S	3.29 µM
CCOC(=O)N1C(=S)N(c2ccc(C)cc2)C(=O)C12CCCCC2	> 12 µM (inactive)
CCOC(=O)N1C(=S)NC(=O)C12CCCCC2	> 12 µM (inactive)
CCOC(=O)N1C(=O)C2(CCCCC2)N(c2cccc(C)c2)C1=S	2.34 µM
Cc1ccc(N2C(=O)NC(=O)C23CCCCC3)cc1	> 12 µM (inactive)
CCOC(=O)N1C(=O)C2(CCCCC2)N(c2ccc(C(F)(F)F)cc2)C1=S	4.15 µM
CCOC(=O)N1C(=O)C2(CCCCC2)N(c2ccc(C)cc2)C1=S	1.85 µM and 2.09 µM
CCOC(=O)N1C(=O)C2(CCOCC2)N(c2ccc(C)cc2)C1=S	> 12 µM (inactive)
CCOC(=O)N1C(=O)C2(CCCCC2)NC1=S	> 12 µM (inactive)
COC(=O)N1C(=O)C2(CCCCC2)N(c2ccc(C)cc2)C1=S	5.93 µM
CCCC(=O)N1C(=O)C2(CCCCC2)N(c2ccc(C)cc2)C1=S	1.48 µM
CCOC(=O)N1C(=O)C2(CCCCC2)N(c2ccccc2)C1=S	2.04 µM
Cc1ccc(N2C(=S)N(S(C)(=O)=O)C(=O)C23CCCCC3)cc1	> 12 µM (inactive)

Tested on: not listed separately
Experiment: as above
Conditions: Candida glabrata growth, glucose medium, OD600, 48 h; at 6 µM (top of the series)

Structure (SMILES)	activity change, negative = inhibition
Cc1ccc(N2C(=S)NC(=O)C23CCCC3)cc1	-25.3% (inactive)
CCCCN1C(=O)N(c2ccc(C)cc2)C2(CCCCC2)C1=S	-6.75% (inactive)
Cc1ccc(N2CC(=O)NC2=S)cc1	2.6% (inactive)
CCOC(=O)N1C(=O)C2(CCCCC2)N(c2ccc(-c3ccccc3)cc2)C1=S	-30.1% (inactive)
O=C1NC(=S)N(c2ccccc2)C12CCCCC2	5.48% (inactive)
CCOC(=O)N1C(=O)C2(CCCCC2)N(C(C)C)C1=S	10.8% (inactive)
CCOC(=O)N1C(=O)C(C)(C)N(c2ccc(C)cc2)C1=S	-7.97% (inactive)
Cc1ccc(N2C(=S)NC(=O)C23CCCCC3)cc1	-5.97% (inactive)
Cc1ccc(N2C(=S)N(C(=O)OCc3ccccc3)C(=O)C23CCCCC3)cc1	5.73% (inactive)
Cc1ccc(N2C(=S)NC(=O)C23CCOCC3)cc1	-7.64% (inactive)
Cc1ccc(N2CC(=O)NC2=O)cc1	9.85% (inactive)
CCCCN1C(=O)N(c2ccc(C)cc2)C2(CCCCC2)C1=O	-27.1% (inactive)
Cc1ccc(N2C(=S)NC(=O)C2(C)C)cc1	46.6% (inactive)
Cc1ccc(N2C(=S)N(C(=O)Oc3ccccc3)C(=O)C23CCCCC3)cc1	2.19% (inactive)
CCOC(=O)N1C(=O)C2(CCCCC2)N(c2ccc(C(C)(C)C)cc2)C1=S	-18.2% (inactive)
CCOC(=O)N1C(=O)N(c2ccc(C)cc2)C2(CCCCC2)C1=O	-17.3% (inactive)
O=C1NC(=S)N(c2ccc(F)cc2)C12CCCCC2	11% (inactive)
Cc1ccc(N2C(=S)N(C)C(=O)C23CCCCC3)cc1	2.67% (inactive) and 7.65% (inactive)
CC(C)N1C(=S)NC(=O)C12CCCCC2	-10.3% (inactive)
CCCCN1C(=O)C2(CCCCC2)N(c2ccc(C)cc2)C1=S	5.19% (inactive)
O=C1NC(=S)NC12CCCCC2	-24.5% (inactive)
Cc1ccc(N2C(=S)NC(=O)C23CCC3)cc1	9.11% (inactive)
